From patent US6641849B1, “Composition for the prevention and/or treatment of circulatory disorders, comprising derivatives of L-carnitine and extracts of ginkgo biloba” (Sigma-Tau HealthScience S.p.A., priority 1999, dated 2003) come the findings set out here.

In assay [1] the test system is pitressin-induced coronary spasm. The experiment in a line: Coronary spasm tests (pitressin). It counts as in vivo, rat. As to conditions: oral, three days before pitressin i.v.; Ginkgo biloba extract 100 mg/kg, carnitines or carnitine mixture 300 mg/kg; number of rats. From the text:
Enhancement of the activity of Ginkgo biloba when combined with carnitines was also found on evaluating the effects of the administration of these substances alone and in combination on pitressin-induced experimental coronary spasm.
As is known, intravenous injection of 1 v/kg of pitressin in the rat causes characteristic electrocardiographic abnormalities which are most noticeable in lead II as affecting the T wave (asphyxial T wave) due to the diminished myocardial oxygenation related to the reduced coronary flow caused by the pitressin-induced vascular spasm.
In these tests, before being injected with pitressin, the rats received oral administrations for three days consecutively of 100 mg/kg of Ginkgo biloba extracts, or of 300 mg/kg of carnitines alone or carnitine mixture, or of carnitine or carnitine mixture in combination with Ginkgo biloba.

Assay [2] concerns collagen-induced platelet aggregation. The experiment in a line: Platelet aggregation tests. It counts as cell-based, human (healthy volunteers). The note with it: collagen 2.5 μg/ml, 10 minutes' incubation; for ED50 (platelet aggregation): human blood.
Method: In these tests, blood samples were taken from healthy volunteers with a platelet content of at least 300,000/mm^3. The method described by Born (Born J. V. R. J. Physiol., 26:25 1963) was used to induce platelet aggregation.
Platelet aggregation was induced by collagen (2.5 μg/ml) and measured both at the beginning and after 10 minutes' incubation with propionyl L-carnitine, acetyl L-carnitine, Ginkgo biloba extract or with these compounds in various combinations.
For assay [3], the system named is cerebral ischaemia induced by endothelin-1 (MCA occlusion). The experiment in a line: Tests of protection against experimentally induced cerebral ischaemia (endothelin-1, MCA occlusion). It counts as in vivo. The note with it: rat; i.v. 5 minutes after endothelin-1; propionyl/acetyl L-carnitine 50 mg/kg, Ginkgo biloba 10 mg/kg; checked after 3 days. How it is done:
Since a major responsible for causing damage following cerebral ischaemia is known to be the production of superoxides and free radicals (Litton S. A., Nature, 364:625, 1993), in these tests cerebral ischaemia was brought about by occluding the middle cerebral artery (MCA) of the rat according to the method described by Scharkey (Scharkey Y., Nature, 371:336, 1994) by injecting to the anaesthetized animal endothelin-1 (120 pml), for a duration of 3 minutes with a microcannula placed stereotactically in the pyriform cortex at the level of the middle cerebral artery (MCA).
The ischaemic area thus produced was checked after 3 days with transcardiac perfusion of paraformaldehyde solution (4% in PBS).
After removing the brain and placing it in a fixator containing 10% saccharose, cryostat sections were fixed in methyl violet and examined under the optical microscope.
The administration of propionyl L-carnitine (50 mg/kg), acetyl L-carnitine (50 mg/kg) and of a solution of Ginkgo biloba (10 mg/kg), or these compounds in combination, was performed intravenously 5 minutes following injection of endothelin-1.
The volume of the infarcted area was calculated according to the method described by Park (Park C., Anns. Neurol., 20:150, 1989).

Assay [4] has as its system PAF-induced oedema of the rat paw. Kind of assay: PAF-induced inflammatory reaction tests (paw oedema, plethysmographic). It counts as in vivo. The note with it: 300 mg/kg i.p. one hour before PAF 2 μg into rear paw, rats. How it is done:
In these experiments, a solution containing PAF was injected into the paws of rats according to the method described by Burstein (Burstein S. H., J. Pharmacol. Exptl. Ther., 251:531, 1989).
As is known, PAF injected into the rat paw causes the release of numerous phlogogenic substances, including prostaglandins, which gives rise in a short time to the onset of marked oedema (Bonnet J., J. Agent Actions, 11:559, 1981).
Using the method described by Goldenberg (Goldenberg M. M., Prostaglandins, 28:271, 1984) and Silva (Silva P. M. R., Inflammation, 10:393, 1986), a solution of PAF at an overall dose of 2 μg was injected into the rear paws of rats, and the ensuing oedematous reaction was evaluated with a plethysmographic method according to the technique described by Ferreira (Ferreira S. H., J. Pharmacol., 127:83, 1979).
The tests were conducted in various groups of rats, one of which was a control group, while the others received intraperitoneal administrations, one hour before to PAF injection, of acetyl L-carnitine (300 mg/kg), or propionyl L-carnitine (300 mg/kg), or of a combination of L-carnitine (75 mg/kg), acetyl L-carnitine (75 mg/kg) and propionyl L-carnitine (75 mg/kg), or of a Ginkgo biloba extract (100 mg/kg), or of the Ginkgo biloba extract plus carnitines.

Assay [5] has as its system pheochromocytoma cells (PC-12). Kind of assay: Tests of H2O2 toxicity on pheochromocytoma cells (PC-12). The note with it: 10^−8 M; PC-12, H2O2 30 minutes, 24 hours of observation; H2O2 alone approximately 38%. It counts as cell-based.
Method: In these tests, a pheochromocytoma cell (PC-12) culture was used containing 3×10^5 M cells/ml which was submitted for 30 minutes to 0.1 g mM H2O2.
The next assay deals with PAF-induced mortality. The experiment in a line: PAF-induced mortality tests. The note with it: 300 mg/kg i.p. one hour before PAF 20 μg/kg i.v., mice. It counts as in vivo, albino mice. As to the method: Platelet-activating factor (PAF) is an acetylated alkyl phosphoglyceride whose release in the body, under various stimuli, causes circulatory-type reactions related mainly to increased capillary permeability, with consequent extravasation of blood, increased platelet aggregation and thrombosis, reduced coronary flow, release of inflammatory factors, lysosomal enzymes and superoxides.
When administered intravenously (20 μg/kg) to animals, PAF causes the death of the animals treated with it in a short space of time, i.e. approximately one hour, mainly as a result of cardiocirculatory collapse.
A series of tests was conducted using the method described by Young (Young J. N., Prostaglandins 30:545, 1985) and by Myers (Myers H., Br. J. Pharmacol., 79:595, 1983) in order to assess whether Ginkgo biloba extracts (whose anti-PAF activity is known) protect animals injected with PAF against death and whether the carnitines (particularly propionyl L-carnitine, whose vascular regulatory activity is known) are capable of increasing the protective effect against PAF.
The tests were conducted on albino mice with a mean weight of 25 g divided into various groups, the first of which served as control group and received intravenous injections of PAF at the dose of 20 μg/kg, while the other groups were administered intraperitoneal injections, one hour before to PAF administration, either of Ginkgo biloba extract, or of the various carnitines alone or in combination, or of Ginkgo biloba plus carnitines.

Structures are written as SMILES.

With `CC(=O)O[C@H](CC(=O)[O-])C[N+](C)(C)C` [Acetyl L-carnitine, acetyl L-carnitine], in assay [1], the Rats not protected was found to be 3, the Rats protected is recorded as 1 and the Rats weakly protected came out at 3. In addition, in assay [2], the “reduction of platelet aggregation (in words)” value is on record as “only to a slight extent” and the “ED50 (platelet aggregation)” value was found to be 26.4 ± 0.34 µg. Also, in assay [3], the “magnitude of ischaemia (volume mm^3) due to MCA occlusion” value was 21.6 ± 1.8 mm^3. For the same compound, the “% reduction of oedema” value in assay [4] is 15%. Further, in assay [5], the “survival of the cells” value was found to be 55%. For the same compound, in the assay with PAF-induced mortality, the “% mortality 1 h after PAF injection” value is recorded as 80/100.

Take `C[N+](C)(C)C[C@H](O)CC(=O)[O-]` [L-carnitine]: in assay [1], the Rats not protected turned out to be 3, the Rats protected stood at 0 and the Rats weakly protected came out at 1. The “% reduction of oedema” value in assay [4] is reported as 10%. For the same compound, the “% mortality 1 h after PAF injection” value in the assay on PAF-induced mortality is 90/100.

With `CCC(=O)O[C@H](CC(=O)[O-])C[N+](C)(C)C` [Propionyl L-carnitine, propionyl L-carnitine], in assay [1], the Rats not protected is listed as 4, the Rats protected came out at 2 and the Rats weakly protected is listed as 3. In assay [2], the “reduction of platelet aggregation (in words)” value was “only to a slight extent” and the “ED50 (platelet aggregation)” value was determined as 30.5 ± 0.41 µg. Also, the “magnitude of ischaemia (volume mm^3) due to MCA occlusion” value in assay [3] turned out to be 32.6 ± 2.4 mm^3. For the same compound, the “% reduction of oedema” value in assay [4] is on record as 35%. For the same compound, in assay [5], the “survival of the cells” value is recorded as 45%. Further, the “% mortality 1 h after PAF injection” value with PAF-induced mortality was 80/100.
